US20250098675A1, “A METHOD OF CONTROLLING RESISTANT AND NON-RESISTANT PESTS” (UPL CORPORATION LIMITED, priority 2021, published 2025)
Read-outs that look alike come from different tables or passages of the source.

Experiments:
Assay type in all cases: in vivo
adult Sphenophorus levis = assay: Control efficacy against adults, plots sprayed
Description: The efficacy of flupyrimin was determined against adult and the larvae stage of Sphenophorus levis. To evaluate the efficacy of flupyrimin plots with ten Sphenophorus levis adults were populated. Flupyrimin at a concentration of 500 g/L was used to treat the plots by spraying. Each plot received a 10 cm splitted lengthwise suarcane stem piece as feed and accordingly each plot was subjected to treatment conditions as depicted in the table below.

Mahanarva fimbriolata = assay: Field trial, % control of Mahanarva fimbriolata nymphs and adult insects in sugarcane
Description: Trials were carried out in field to assess efficacy of flupyrimin against Mahanarva fimbriolata. Evaluation was done to check % control of nymphs and adult insects at intervals of 30 DAA and 60 DAA (for nymphs) and 7, 30 and 60 DAA (for adult insects). The efficacy was compared with standard insecticides thiamethoxam and ethiprole.

[1] = test system: larvae Sphenophorus levis; assay: Larvae bioassay, residual contact and ingestion, dipped sugarcane stalks; details: for Larvae efficacy control (%): 1DAA
Description: The efficacy of flupyrimin was determined against the larvae stage of Sphenophorus levis. Accordingly, the larvae bioassay method was residual contact and ingestion. The sugarcane stalks were dipped in a insecticide solution then placed on a papart towel to dry. The sugarcane stalks were placed in glass tubes, then S. levis first stage and last instar lavae were introduced in each tube separately. The mortality achieved was 100% at 1 DAA. The treatments condidtions and the results are depicted in Table 8 below: […]

[2] = test system: resistant Mahanarva fimbriolata; assay: Greenhouse pot trial, drench, mortality of resistant nymphs; details: for mortality at 250 g/ha / mortality at 400 g/ha: Mahanarva fimbriolata, soil; for mortality at 250 g/ha: read-out: Mortality (%) of Nymphs-Resistant population % Mortality, 250 g.a.i/ha; for mortality at 400 g/ha: read-out: Mortality (%) of Nymphs-Resistant population % Mortality, 400 g.a.i/ha
Description: The sugarcane plants were sown under greenhouse in pots. Artificially, each pot was infested with 10 nymphs in 3rd/4th instar. Infestation was done 24 h before of application for insect acclimatization. The treatments were applied via drenching, after infestation. The assessments were made at 3 and 5 days after infestation in 4 replications.

O=C(N=c1ccccn1Cc1ccc(Cl)nc1)C(F)(F)F [Flupyrimin, flupyrimin]
control of S. levis adults (in words) (adult Sphenophorus levis; 9 DAA, no dose stated): almost complete control | Adults efficacy control (%) (adult Sphenophorus levis; 150 g of a.i/ha (0.30 kg-l/ha), 1DAA): 46.3% | Adults efficacy control (%) (adult Sphenophorus levis; 150 g of a.i/ha (0.30 kg-l/ha), second value column, time not printed): 75.1% | Adults efficacy control (%) (adult Sphenophorus levis; 150 g of a.i/ha (0.30 kg-l/ha), third value column, time not printed): 97.3% | Adults efficacy control (%) (adult Sphenophorus levis; 250 g of a.i/ha (0.50 kg-l/ha), 1DAA): 61.0% | Adults efficacy control (%) (adult Sphenophorus levis; 250 g of a.i/ha (0.50 kg-l/ha), second value column, time not printed): 80.9% | Adults efficacy control (%) (adult Sphenophorus levis; 250 g of a.i/ha (0.50 kg-l/ha), third value column, time not printed): 100% | Adults efficacy control (%) (adult Sphenophorus levis; 300 g of a.i/ha (0.60 kg-l/ha), 1DAA): 59.5% | Adults efficacy control (%) (adult Sphenophorus levis; 300 g of a.i/ha (0.60 kg-l/ha), second value column, time not printed): 79.5% | Adults efficacy control (%) (adult Sphenophorus levis; 300 g of a.i/ha (0.60 kg-l/ha), third value column, time not printed): 99.1% | Adults efficacy control (%) (adult Sphenophorus levis; 500 g of a.i/ha (1.00 kg-l/ha), 1DAA): 56.9% | Adults efficacy control (%) (adult Sphenophorus levis; 500 g of a.i/ha (1.00 kg-l/ha), second value column, time not printed): 79.9% | Adults efficacy control (%) (adult Sphenophorus levis; 500 g of a.i/ha (1.00 kg-l/ha), third value column, time not printed): 97.3% | Adults % Control (Mahanarva fimbriolata; 150 g a.i./ha, 7 DAA): 80% | Adults % Control (Mahanarva fimbriolata; 150 g a.i./ha, 30 DAA): 100% | Nymphs % Control (Mahanarva fimbriolata; 150 g a.i./ha, 30 DAA): 62% | Adults % Control (Mahanarva fimbriolata; 150 g a.i./ha, 60 DAA): 75% | Nymphs % Control (Mahanarva fimbriolata; 150 g a.i./ha, 60 DAA): 95% | Adults % Control (Mahanarva fimbriolata; 200 g a.i./ha, 7 DAA): 80% | Adults % Control (Mahanarva fimbriolata; 200 g a.i./ha, 30 DAA): 50% | Nymphs % Control (Mahanarva fimbriolata; 200 g a.i./ha, 30 DAA): 97% | Adults % Control (Mahanarva fimbriolata; 200 g a.i./ha, 60 DAA): 100% | Nymphs % Control (Mahanarva fimbriolata; 200 g a.i./ha, 60 DAA): 95% | Adults % Control (Mahanarva fimbriolata; 250 g a.i./ha, 7 DAA): 60% | Adults % Control (Mahanarva fimbriolata; 250 g a.i./ha, 30 DAA): 100% | Nymphs % Control (Mahanarva fimbriolata; 250 g a.i./ha, 30 DAA): 92% | Adults % Control (Mahanarva fimbriolata; 250 g a.i./ha, 60 DAA): 50% | Nymphs % Control (Mahanarva fimbriolata; 250 g a.i./ha, 60 DAA): 100% | Nymphs % Control (Mahanarva fimbriolata; 250 g a.i./ha, 60 DAA, listed as flupyrimin): complete control | Adults % Control (Mahanarva fimbriolata; 300 g a.i./ha, 7 DAA): 40% | Adults % Control (Mahanarva fimbriolata; 300 g a.i./ha, 30 DAA): 25% | Nymphs % Control (Mahanarva fimbriolata; 300 g a.i./ha, 30 DAA): 81% | Adults % Control (Mahanarva fimbriolata; 300 g a.i./ha, 60 DAA): 100% | Nymphs % Control (Mahanarva fimbriolata; 300 g a.i./ha, 60 DAA): 95% | Larvae efficacy control (%) ([1]; 150 g of a.i/ha (0.30 kg-l/ha)): 100% | Larvae efficacy control (%) ([1]; 250 g of a.i/ha (0.50 kg-l/ha)): 100% | Larvae efficacy control (%) ([1]; 300 g of a.i/ha (0.60 kg-l/ha)): 100% | Larvae efficacy control (%) ([1]; 500 g of a.i/ha (1.00 kg-l/ha)): 100% | mortality of S. levis larvae ([1]; first stage and last instar larvae, 1 DAA, no dose stated): 100% | Mortality (%) of Nymphs-Resistant population % Mortality ([2]; 150 g.a.i/ha, 0 DAA 3 DAI): 85% | Mortality (%) of Nymphs-Resistant population % Mortality ([2]; 150 g.a.i/ha, 0 DAA 5 DAI): 98% | Mortality (%) of Nymphs-Resistant population % Mortality ([2]; 200 g.a.i/ha, 0 DAA 3 DAI): 97% | Mortality (%) of Nymphs-Resistant population % Mortality ([2]; 200 g.a.i/ha, 0 DAA 5 DAI): 100% | Mortality (%) of Nymphs-Resistant population % Mortality ([2]; 250 g.a.i/ha, 0 DAA 3 DAI): 98% | Mortality (%) of Nymphs-Resistant population % Mortality ([2]; 250 g.a.i/ha, 0 DAA 5 DAI): 98% | Mortality (%) of Nymphs-Resistant population % Mortality ([2]; 300 g.a.i/ha, 0 DAA 3 DAI): 97% | Mortality (%) of Nymphs-Resistant population % Mortality ([2]; 300 g.a.i/ha, 0 DAA 5 DAI): 100% | control of resistant nymphs (in words) ([2]; summary of the table, no dose stated): effective in completely controlling resistant nymphs

CN1COCN(Cc2cnc(Cl)s2)/C1=N\[N+](=O)[O-] [Thiamethoxam, thiamethoxam]
Adults % Control (Mahanarva fimbriolata; 250 g a.i./ha, 7 DAA): 60% | Adults % Control (Mahanarva fimbriolata; 250 g a.i./ha, 30 DAA): 50% | Nymphs % Control (Mahanarva fimbriolata; 250 g a.i./ha, 30 DAA): 86% | Adults % Control (Mahanarva fimbriolata; 250 g a.i./ha, 60 DAA): 75% | Nymphs % Control (Mahanarva fimbriolata; 250 g a.i./ha, 60 DAA): 90% | mortality at 250 g/ha ([2]; 0 DAA 3 DAI): 23% | mortality at 250 g/ha ([2]; 0 DAA 5 DAI): 25%

CC[S+]([O-])c1c(C#N)nn(-c2c(Cl)cc(C(F)(F)F)cc2Cl)c1N (centres unmarked) [Ethiprole, ethiprole]
Adults % Control (Mahanarva fimbriolata; 400 g a.i./ha, 7 DAA): 100% | Adults % Control (Mahanarva fimbriolata; 400 g a.i./ha, 30 DAA): 100% | Nymphs % Control (Mahanarva fimbriolata; 400 g a.i./ha, 30 DAA): 95% | Adults % Control (Mahanarva fimbriolata; 400 g a.i./ha, 60 DAA): 100% | Nymphs % Control (Mahanarva fimbriolata; 400 g a.i./ha, 60 DAA): 100% | mortality at 400 g/ha ([2]; 0 DAA 3 DAI): 33% | mortality at 400 g/ha ([2]; 0 DAA 5 DAI): 45%
